How the values were obtained:
[1] = tested on: HCC827 (β3−, GFP+, luciferase+) cells; experiment: Orthotopic lung adenocarcinoma model and CTC isolation; type: in vivo, nu/nu mice
Protocol: The pre-treatment group mice were sacrificed in week 8 for CTC analysis. […] Whole blood (0.5 mL/mouse) was collected in EDTA tubes, and PBMCs including CTCs were isolated using Lymphoprep™ ([…] Technologies, 85415) and SepMate™ ([…] Technologies, 07801) following the manufacturer's protocol. Isolated cells were washed with PBS, plated on poly-L-Lysine (Sigma, P1399) coated 8-well chamber plates, fixed with 4% PFA (VWR, AA43368-9M), and stained with DAPI (Life Technologies, D1306, 1 μg/mL in 1% BSA in PBS), LM609 (5 μg/mL in 1% BSA in PBS), and a fluorescently-labeled secondary antibody (Thermo, A21235, 1:500). The cells were analyzed utilizing Nikon Eclipse C2™ confocal microscope (Nikon). CTCs were defined as DAPI and GFP double positive cells. The numbers of αvβ3-positive and -negative CTCs per mouse were counted. After sacrificing the mice, the tumor mass volume in the lungs were also measured utilizing an OV100™ fluorescence imaging system (Olympus).

[2] = tested on: PC9 (β3−) subcutaneous xenograft; experiment: PC9 subcutaneous xenograft treated with erlotinib; type: in vivo, mice; conditions: erlotinib n=1 vs vehicle n=1, measured weekly
HCC827 (β3−) xenograft = experiment: Erlotinib resistant lung adenocarcinoma xenograft model (HCC827 subcutaneous); conditions: erlotinib-resistant tumors vs vehicle group
Protocol: Briefly, HCC827 (5×10^6 tumor cells in 100 μl of RPMI) cells were subcutaneously injected to the right flank of female nu/nu mice (8-10 weeks old). Tumors were measured twice per week with calipers (tumor volume (mm 3)=length×width×width/2). […] Tumor tissues were divided into three pieces for snap freezing, freezing in OCT compound (VWR, 25608-930), or 10% formalin fixation (Fisher Scientific, 23-313095) for further analyses.
Immunohistochemical staining was performed on unstained FFPE slides according to the manufacturers recommendations for the VECTASTAIN Elite ABC HRP Kit (Vector Laboratories, PK-6100). An anti-integrin β3 antibody (Cell Signaling, 13166, 1:200) and a biotinylated goat anti-rabbit antibody (Vector Laboratories, BA-1000, 1:200) were used. The stained tissues were imaged on NanoZoomer Slide Scanning System™ (Hamamatsu), and the β3-positive area fraction with respect to tumor tissue was calculated utilizing ImageJ (MH) (5).

[3] = tested on: tumor-associated macrophages (TAMs); experiment: Quantification of TAMs in xenograft tumor tissues; type: in vivo, nu/nu mice; conditions: erlotinib vs vehicle, after 50 days of treatment
Protocol: TAMs were isolated from tumor tissues as previously described (4). Snap frozen tumor tissues were thawed, minced, and dissociated in HBSS containing collagenase IV (Sigma, C5138, 0.5 mg/mL), hyaluronidase (Sigma, H2654, 0.1 mg/mL), dispase 11 (Roche, 04942078001, 0.6 U/mL), and DNase IV (Millipore, 260913-10MU, 5 U/mL) at 37° C. for 15 minutes. Cell suspensions were filtered through 70 μm cell strainer and washed with PBS. Single cell suspensions (10^6 cells/100 μL in 5% BSA in PBS) were incubated with Mouse BD Fc Block™ (BD Biosciences, 553142, 1:50) for 10 minutes at 4° C. and fluorescently labeled antibodies, CD11b (eBioscience, 17-0112-81, 1:100), Ly-6G (eBioscience, 25-5931, 1:100), CD206 (BioRad, MCA2235PET), and MHC11 (BD Biosciences, 562928) for one hour at 4° C. Flow cytometry was performed on BD LSRFortessa™, and the ratio of TAMs (CD11b-positive, Ly-6G-negative), M1 (CD206-negative, MHC11-positive within TAMs), and M2 (non-M1 population within TAMs) in the tumor tissue was calculated using the flow cytometry analysis program FlowJo™ (Treestar).

HCC827-ErlR = tested on: HCC827-ErlR
Protocol: (§1) Cells were plated in 96-well plates, and after appropriate treatments, the cells were incubated in MTT solution (Sigma, M2128, 0.5 mg/mL in growth media) for two hours at 37° C. Then, the MTT solution was removed, and the blue crystalline precipitate in each well was dissolved in DMSO. Visible absorbance of each well at 560 nm was quantified using a microplate reader.

PC9 ErlR cells = conditions: cells from erlotinib treated (ErlR) vs vehicle treated animal
Protocol: as §1

integrin αvβ3 = integrin αvβ3 (Homo sapiens, UniProt P05106+P06756); conditions: in vitro; cited from earlier work
solid tumors = conditions: patients with solid tumors; cited from earlier work

Sequence of integrin αvβ3 (P06756 31-889 limits assumed): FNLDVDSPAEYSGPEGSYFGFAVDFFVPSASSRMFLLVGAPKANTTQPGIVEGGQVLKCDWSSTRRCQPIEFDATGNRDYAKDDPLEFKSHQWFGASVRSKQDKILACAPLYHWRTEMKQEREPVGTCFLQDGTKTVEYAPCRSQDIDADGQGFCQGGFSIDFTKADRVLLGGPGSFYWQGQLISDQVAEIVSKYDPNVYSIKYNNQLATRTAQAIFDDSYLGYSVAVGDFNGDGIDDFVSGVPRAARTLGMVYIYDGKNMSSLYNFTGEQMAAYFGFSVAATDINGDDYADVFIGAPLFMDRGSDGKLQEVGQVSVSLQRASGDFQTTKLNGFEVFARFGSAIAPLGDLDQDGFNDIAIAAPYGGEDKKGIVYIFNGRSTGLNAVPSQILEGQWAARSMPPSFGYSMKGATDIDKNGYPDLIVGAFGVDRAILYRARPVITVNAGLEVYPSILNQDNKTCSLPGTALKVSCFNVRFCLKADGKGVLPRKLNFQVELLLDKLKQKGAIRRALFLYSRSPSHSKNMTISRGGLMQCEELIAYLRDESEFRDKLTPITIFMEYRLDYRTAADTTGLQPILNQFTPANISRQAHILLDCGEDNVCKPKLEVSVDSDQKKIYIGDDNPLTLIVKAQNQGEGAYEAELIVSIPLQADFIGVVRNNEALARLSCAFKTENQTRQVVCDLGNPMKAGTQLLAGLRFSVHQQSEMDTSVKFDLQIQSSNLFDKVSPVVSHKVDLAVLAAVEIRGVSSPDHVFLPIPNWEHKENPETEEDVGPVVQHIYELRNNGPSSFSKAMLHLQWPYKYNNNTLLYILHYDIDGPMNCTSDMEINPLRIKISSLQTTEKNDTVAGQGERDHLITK
Sequence of integrin αvβ3 (P06756 891-1048 limits assumed): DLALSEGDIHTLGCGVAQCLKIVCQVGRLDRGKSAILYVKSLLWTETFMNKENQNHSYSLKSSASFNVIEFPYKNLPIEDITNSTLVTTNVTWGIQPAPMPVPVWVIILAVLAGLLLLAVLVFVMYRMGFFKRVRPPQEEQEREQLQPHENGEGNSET
Sequence of integrin αvβ3 (P05106 27-788): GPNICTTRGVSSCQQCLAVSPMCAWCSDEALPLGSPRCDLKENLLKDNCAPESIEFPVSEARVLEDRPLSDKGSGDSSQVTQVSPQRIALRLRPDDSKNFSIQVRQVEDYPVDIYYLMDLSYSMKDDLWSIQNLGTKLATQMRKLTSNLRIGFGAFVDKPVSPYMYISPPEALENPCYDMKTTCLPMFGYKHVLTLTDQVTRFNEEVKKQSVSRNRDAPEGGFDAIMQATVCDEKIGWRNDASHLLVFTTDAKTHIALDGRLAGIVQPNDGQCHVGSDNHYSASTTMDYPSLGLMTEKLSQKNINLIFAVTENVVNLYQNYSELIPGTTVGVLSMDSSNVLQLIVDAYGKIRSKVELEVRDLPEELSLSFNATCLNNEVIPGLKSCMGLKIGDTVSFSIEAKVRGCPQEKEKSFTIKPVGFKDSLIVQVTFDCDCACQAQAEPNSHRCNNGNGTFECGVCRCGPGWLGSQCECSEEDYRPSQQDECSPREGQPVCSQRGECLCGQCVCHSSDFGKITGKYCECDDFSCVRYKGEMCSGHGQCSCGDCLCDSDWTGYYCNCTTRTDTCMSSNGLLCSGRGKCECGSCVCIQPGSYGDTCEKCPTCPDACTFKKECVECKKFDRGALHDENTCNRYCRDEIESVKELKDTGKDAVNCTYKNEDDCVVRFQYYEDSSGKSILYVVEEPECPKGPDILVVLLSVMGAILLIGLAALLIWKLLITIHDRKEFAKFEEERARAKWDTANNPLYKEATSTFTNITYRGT

Molecule: C#Cc1cccc(Nc2ncnc3cc(OCCOC)c(OCCOC)cc23)c1 [erlotinib]
- number of CTCs ([1]; erlotinib for 30 days vs pre-treatment): sharp increase in the number of CTCs
- αvβ3 status of CTCs ([1]; following erlotinib treatment): vast majority of the CTCs detected following erlotinib treatment were αvβ3 positive
- tumor growth [2]: gained resistance
- expression of integrin αvβ3 in tumors (HCC827 (β3−) xenograft): enriched in the erlotinib-resistant tumors compared to the vehicle group
- number of TAMs, particularly M2 type, in tumors [3]: higher number of TAMs

Molecule: C=CC(=O)Nc1cc(Nc2nccc(-c3cn(C)c4ccccc34)n2)c(OC)cc1N(C)CCN(C)C [osimertinib]
- cell viability, sensitivity to EGFR inhibitor (HCC827-ErlR): also resistant
- cell viability (MTT), sensitivity to EGFR inhibitor (PC9 ErlR cells): osimertinib resistant

B1: etaracizumab: a humanized and affinity-matured form of LM609 (antibody, chains of the INN, looked up, V domains shown)
VH: QVQLVESGGGVVQPGRSLRLSCAASGFTFSSYDMSWVRQAPGKGLEWVAKVSSGGGSTYYLDTVQGRFTISRDNSKNTLYLQMNSLRAEDTAVYYCARHLHGSFASWGQGTTVTVSS
VL: EIVLTQSPATLSLSPGERATLSCQASQSISNFLHWYQQRPGQAPRLLIRYRSQSISGIPARFSGSGSGTDFTLTISSLEPEDFAVYYCQQSGSWPLTFGGGTKVEIK
- antibody-dependent cell mediated cytotoxicity (ADCC) (integrin αvβ3): reported to mediate antibody-dependent cell mediated cytotoxicity (ADCC) in vitro
- clinical activity (solid tumors): showed clinical activity in some patients

From patent US20240067733A1, “COMPOSITIONS AND METHODS FOR TARGETING AND KILLING ALPHA-V BETA-3-POSITIVE CANCER STEM CELLS (CSCS) AND TREATING DRUG RESISTANT CANCERS” (THE REGENTS OF THE UNIVERSITY OF CALIFORNIA, priority 2017, published 2024)
